# Measured values published in paper PMC6851324, “Design and development of stapled transmembrane peptides that disrupt the activity of G-protein–coupled receptor oligomers” (The Journal of Biological Chemistry, 2019).
# Where two headings read alike, the source gives them in different places. Where a SMILES comes first, the peptide text is derived from it. Bridges are numbered along the chain shown (N, C = ends). Where no end group is shown, it is not given here. [ ]: non-standard residue; d: D form. S5 = C=CCCC[C@](C)(N)C(=O)O; Nle = CCCC[C@H](N)C(=O)O
# Legend:
# 5-HT2AR–CB1R heteromers = system: 5-HT2AR–CB1R heteromers; design: method as in 2 sources, ref 16 = [16]; PMID 26158621; doi:10.1371/journal.pbio.1002194; 16. Viñals X. , Moreno E. , Lanfumey L. , Cordomí A. , Pastor A. , de La Torre R. , Gasperini P. , Navarro G. , Howell L. A. , Pardo L. , Lluís C. , Canela E. I. , McCormick P. J. , Maldonado R. , and ||| ref 4, unpublished observations; conditions: synthetic TM-mimicking peptides fused to HIV-TAT; cited from earlier work
# Stability in mouse serum = type: in vitro ADME; conditions: 11.1 μM peptide, fresh nonsterile mouse serum (200 μl serum + 25 μl peptide solution, pH 7.5 buffer with 10% DMSO), 37 °C, quench 15% TCA in acetonitrile, HPLC, n = 3; read-out: Half-life (hours), mouse serum (converted)
# Description: (§1) Figure 4. Biophysical analysis of stapled peptides. A, amino acid sequence alignment of the targeted TM regions and disrupting peptides. Cys residues are in the reduced state. Blue bridges indicate the stapled amino acid residues. […] Yields, purity, and MALDI-TOF data are shown for the stapled peptides and negative control. B, CD analysis of 30–50 μM peptides at 20 °C. For proteolytic stability studies, the peptide solution (55.5 μM for trypsin and chymotrypsin and 11.1 μM for serum) was incubated in the presence of 0.55 μg/ml trypsin from porcine pancreas (E), α-chymotrypsin (F), or mouse serum (G) at 37 °C for the indicated times (indicated on the x axis). Data are mean ± S.E. (error bars) (n = 3) percentage of intact peptide normalized to t = 0. Proteolytic half-lives and putative cleavage sites (predicted using the Expasy bioinformatics server's model with a 50% probability of cleavage) are indicated at the bottom of each panel. Positive correlation between helicity and half-life in trypsin/chymotrypsin (C) or serum (D) was determined by two-tailed Pearson's correlation test. TEXT PRINTED IN THE PICTURE: (B) TM7-TAT: Ellipticity (%): 3.4 | (B) TM6-TAT: Ellipticity (%): 18.3 | (B) TM5-TAT: Ellipticity (%): 20.9 | (B) 8: Ellipticity (%): 58.3 | (B) 9: Ellipticity (%): 46.4 | (B) 10: Ellipticity (%): 36.8 | (B) 11: Ellipticity (%): 46 | (E) TM7-TAT: Half-life (min): 21; #Cleavage sites: 8 | (E) TM6-TAT: Half-life (min): 40; #Cleavage sites: 7 | (E) TM5-TAT: Half-life (min): 33; #Cleavage sites: 8 | (E) 8: Half-life (min): 307; #Cleavage sites: 0 | (E) 9: Half-life (min): 178; #Cleavage sites: 0 | (E) 10: Half-life (min): 75; #Cleavage sites: 6 | (E) 11: Half-life (min): 84; #Cleavage sites: 0 | (F) TM7-TAT: Half-life (min): 22; #Cleavage sites: 6 | (F) TM6-TAT: Half-life (min): 32; #Cleavage sites: 7 | (F) TM5-TAT: Half-life (min): 28; #Cleavage sites: 7 | (F) 8: Half-life (min): 425; #Cleavage sites: 4 | (F) 9: Half-life (min): 198; #Cleavage sites: 3 | (F) 10: Half-life (min): 63; #Cleavage sites: 2 | (F) 11: Half-life (min): 79; #Cleavage sites: 4 | (G) TM7-TAT: Half-life (hours): 0.46 | (G) TM6-TAT: Half-life (hours): 0.55 | (G) TM5-TAT: Half-life (hours): 0.81 | (G) 8: Half-life (hours): ≥18 | (G) 9: Half-life (hours): 14.7 | (G) 10: Half-life (hours): 11.7 | (G) 11: Half-life (hours): 5.3 DOUBTS OF THE COPYIST ABOUT THIS PICTURE: Panel A table (Yield, Rt, Purity, [M+H+] calc., [M+H+] Peak Found for 7-11) left out as synthesis and mass-spectrum characterisation data; uncertain whether [M+H+] calc. should count as a molecular weight
# (§2) Dose–response curves were fitted using a four-parameter logistic nonlinear regression mode. Peptide stability data were fitted using a nonlinear regression mode for dissociation kinetics. All statistical tests, curve fitting, and graphing were performed using GraphPad Prism 8 (GraphPad Software, La Jolla, CA).
# To 200 μl of fresh nonsterile mouse serum was added 25 μl of peptide solution (100 μM, dissolved in ammonium bicarbonate buffer, pH 7.5, containing 10% DMSO), and the mixture was incubated at 37 °C. At the specified time, an aliquot of incubation mixture was withdrawn and quenched by the addition of an equal volume of 15% TCA in acetonitrile to precipitate out serum proteins over ice for 30 min. The mixture was then centrifuged at 13,500 rpm for 10 min, and the supernatant was collected and analyzed by HPLC in a similar manner as described previously. The experiment was repeated twice on different days.
# [1] = biological target: T1, α-chymotrypsin from bovine pancreas (Bos taurus, UniProt P00766, DEL14-15/DEL147-148); test: Proteolytic stability against chymotrypsin; type: in vitro ADME; conditions: cattle
# T1 construct: purchased Sigma Type II; host or cells: bovine pancreas
# Description: as §1, §2
# To 100 μl of peptide solution (100 μM, dissolved in ammonium bicarbonate buffer, pH 7.5), 60 μl of ammonium bicarbonate buffer (pH 7.5) was added, together with 20 μl of temperature-equilibrated (37 ± 1 °C) α-chymotrypsin (5 μg/ml) from bovine pancreas (Sigma, Type II, activity > 40 units/mg protein). Peptides were incubated for 15, 30, 60, 120, 240, and 480 min, and then MeOH (HPLC grade) + 0.05% TFA was added. The samples were then centrifuged (15,000 rpm), and supernatant was analyzed in a similar manner as described above. The experiment was repeated twice on different days.
# [2] = isolated enzyme chymotrypsin, 55.5 μM peptide, 0.55 μg/ml α-chymotrypsin from bovine pancreas, ammonium bicarbonate buffer pH 7.5, 37 °C, 15–480 min, intact peptide by RP-HPLC, n = 3, nonlinear regression fit, read-out: Half-life (min), α-chymotrypsin
Compound,disruption of 5-HT2AR–CB1R heteromers (previous studies) (5-HT2AR–CB1R heteromers),half-life at 11.1 μM (Stability in mouse serum) [h],"half-life at 55.5 μM [1, 2] [min]","half-life at 55.5 μM ([1]; isolated enzyme chymotrypsin, pH 7.5) [min]","half-life at 55.5 μM ([1]; 55.5 μM peptide, 0.55 μg/ml α-chymotrypsin from bovine pancreas, ammonium bicarbonate buffer pH 7.5, 37 °C, 15–480 min, intact peptide by RP-HPLC, n = 3, nonlinear regression fit, read-out: Half-life (min), α-chymotrypsin) [min]"
"ETYLMFWIGVTSVLLLFIVYAYMYILWGRKKRRQRRR [TM5-TAT, reference compound]",selectively disrupted,0.81,28,,
"GRKKRRQRRRKTLVLILVVLIICWGPLLAIMVY [TM6-TAT, reference compound]",selectively disrupted,0.55,32,,
C=CCCC[C@](C)(NC(=O)[C@H](Cc1ccc(O)cc1)NC(=O)[C@@H](N)C(C)C)C(=O)N[C@@H](Cc1ccc(O)cc1)C(=O)N[C@@H](CCCC)C(=O)N[C@@](C)(CCCC=C)C(=O)N[C@H](C(=O)N[C@@H](CC(C)C)C(=O)N[C@@H](Cc1c[nH]c2ccccc12)C(N)=O)[C@@H](C)CC [Peptide 11] (H-VY[S5]Y[Nle][S5]ILW-NH2),,,,79,
CCCC[C@H](NC(=O)[C@]1(C)CCC/C=C\CCC[C@](C)(NC(=O)[C@H](Cc2ccccc2)NC(=O)[C@H](CC(C)C)NC(=O)[C@H](CC(C)C)NC(=O)[C@H](CC(C)C)NC(=O)[C@@H](N)C(C)C)C(=O)N[C@@H](C(C)C)C(=O)N[C@@H](Cc2ccc(O)cc2)C(=O)N[C@@H](C)C(=O)N1)C(=O)N[C@@H](Cc1ccc(O)cc1)C(=O)N[C@H](C(=O)N[C@@H](CC(C)C)C(=O)N[C@@H](Cc1c[nH]c2ccccc12)C(N)=O)[C@@H](C)CC [Peptide 8] (H-VLLLF[S5]VYA[S5][Nle]YILW-NH2; staple (Z) 6-10),,≥ 18,,,425
